This is an account of results in ChEMBL document CHEMBL4400510, “Synthesis and antitubercular evaluation of reduced lipophilic imidazo[1,2-a]pyridine-3-carboxamide derivatives” (Eur J Med Chem, 2019).

Structures are written as SMILES. A value given as a limit tells only on which side of the number the result lay.

Series [1] relates to Mycobacterium tuberculosis. As to the kind of experiment: Antitubercular activity against multi drug resistant Mycobacterium tuberculosis 16833 after 7 days by MABA method. Type of series: functional. As to conditions: Mycobacterium tuberculosis, 16833, 168 h.
Series [2] deals with Mycobacterium tuberculosis. The experiment in a line: Antitubercular activity against multi drug resistant Mycobacterium tuberculosis 16995 after 7 days by MABA method. Type of series: functional. The settings on record: Mycobacterium tuberculosis, 16995, 168 h. (In general: Resazurin is reduced to fluorescent resorufin, in cell work by metabolically active cells.)
Series [3] is described as follows: Selectivity index, ratio of CC50 for African green monkey Vero cells to MIC>90 multi drug resistant Mycobacterium tuberculosis 16995. The series is classed as toxicity. The settings on record: read-out: Selectivity Index.

The term MIC90 denotes an inhibitory concentration at the 90% level, which refers to growth in some studies and to a panel of isolates in others. As for `CCc1nc2ccc(Cl)cn2c1C(=O)NCc1ccc(N2CCN(Cc3ccc(OC(F)(F)F)cc3)CC2)cc1`, the MIC90 in series [1] and in series [2] was less than 0.035 µM each time.

Turning to `CCc1nc2ccc(Cl)cn2c1C(=O)NCc1ccc(N2CC3CN(CC4CCCCC4)CC3C2)cc1` (configuration not stated), the selectivity ratio in series [3] was more than 1000. Moreover, the MIC90 in series [1] and in series [2] was less than 0.035 µM each time.

With `CCc1nc2ccc(Cl)cn2c1C(=O)NCc1ccc(N2CC3CN(c4ccc(OC(F)(F)F)cc4)CC3C2)cc1` (configuration not stated), the MIC90 in series [1] and in series [2] was less than 0.035 µM in each case.

On to `CCc1nc2ccc(Cl)cn2c1C(=O)NCc1ccc(N2CC3CN(Cc4ccc(OC(F)(F)F)cc4)CC3C2)cc1` (configuration not stated), for which the selectivity ratio in series [3] is more than 586. The MIC90 in series [1] and in series [2] was less than 0.035 µM each time.

For the compound `CCc1nc2ccc(Cl)cn2c1C(=O)NCc1ccc(N2CCC3(CC2)CCN(c2ccc(OC(F)(F)F)cc2)CC3)cc1`, in series [3], the selectivity ratio was more than 1000. Besides, the MIC90 in series [1] and in series [2] was less than 0.035 µM throughout.

As to `CCc1nc2ccc(Cl)cn2c1C(=O)NCc1ccc(N2CC3CCC2CN3CC2CCCCC2)cc1` (configuration not stated), the MIC90 in series [1] and in series [2] was less than 0.035 µM throughout.

For the compound `CCc1nc2ccc(Cl)cn2c1C(=O)NCc1ccc(N2CCN(CC3CCCCC3)CC2)cc1`, the selectivity ratio in series [3] was more than 1000. Also, the MIC90 in series [1] and in series [2] was less than 0.035 µM throughout.

With `NNC(=O)c1ccncc1` [ISONIAZID], the MIC90 in series [1] and in series [2] was more than 40 µM in each case.

Turning to `O=c1nc(N2CCN(CC3CCCCC3)CC2)sc2c([N+](=O)[O-])cc(C(F)(F)F)cc12` [MACOZINONE], the MIC90 in series [1] and in series [2] was less than 0.035 µM in each case.

For `CO[C@H]1/C=C/O[C@@]2(C)Oc3c(C)c(O)c4c(O)c(c(/C=N/N5CCN(C)CC5)c(O)c4c3C2=O)NC(=O)/C(C)=C\C=C\[C@H](C)[C@H](O)[C@@H](C)[C@@H](O)[C@@H](C)[C@H](OC(C)=O)[C@@H]1C` [RIFAMPIN], the MIC90 in series [1] and in series [2] was more than 40 µM throughout.

As for `CCc1nc2ccc(Cl)cn2c1C(=O)NCc1ccc(N2CCC(c3ccc(OC(F)(F)F)cc3)CC2)cc1` [TELACEBEC], the selectivity ratio in series [3] is more than 1000. In addition, the MIC90 in series [1] and in series [2] was less than 0.035 µM each time.
